Measurements as given in US10570184B2, “GLP-1/glucagon receptor co-agonists for medical use” (Novo Nordisk A/S, priority 2014, dated 2020).
Starred links: 1 amine or outer side, 2 acyl side, 3 side chain; linkers in the order of their positions; H or OH if unused. Non-standard residues stand in square brackets, D forms with d. Residues, ends and D or L forms follow the SMILES beside them. Groups on a side chain read outwards from the residue. *: point of attachment. C18 diacid = O=C(O)CCCCCCCCCCCCCCCCC(=O)*; γGlu = O=C(O)[C@H](CCC(=O)[*:2])N[*:1]; Ac4c = NC1(C(=O)O)CCC1; AEEA = NCCOCCOCC(=O)O; Aib = CC(C)(N)C(=O)O

Target: T1, human GLP-1 receptor (Homo sapiens, UniProt P43220)
T1 construct: expressed in transfected cells; host or cells: membranes of BHK cells (parent BHKTS13), clone FCW467-12A
Test: Assay (II)(a) GLP-1 receptor binding, 125I-GLP-1 displacement SPA on BHK membranes
Details: without presence of serum albumin; read-out: GLP-1R IC50 (nM) [Assay (II)(a)]
In short: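 Membranes from BHK cells (clone FCW467-12A) stably expressing human GLP-1R were incubated with serially diluted compounds (8×10EE-13 to 8×10EE-7 M before addition) and [125I]-GLP-1-(7-36)NH2 with WGA SPA beads, 2 h at 30° C, pH 7.4. IC50 taken from displacement by non-linear regression. Run at ≤0.001% or 2.0% final serum albumin.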

T1 sequence (P43220 24-463): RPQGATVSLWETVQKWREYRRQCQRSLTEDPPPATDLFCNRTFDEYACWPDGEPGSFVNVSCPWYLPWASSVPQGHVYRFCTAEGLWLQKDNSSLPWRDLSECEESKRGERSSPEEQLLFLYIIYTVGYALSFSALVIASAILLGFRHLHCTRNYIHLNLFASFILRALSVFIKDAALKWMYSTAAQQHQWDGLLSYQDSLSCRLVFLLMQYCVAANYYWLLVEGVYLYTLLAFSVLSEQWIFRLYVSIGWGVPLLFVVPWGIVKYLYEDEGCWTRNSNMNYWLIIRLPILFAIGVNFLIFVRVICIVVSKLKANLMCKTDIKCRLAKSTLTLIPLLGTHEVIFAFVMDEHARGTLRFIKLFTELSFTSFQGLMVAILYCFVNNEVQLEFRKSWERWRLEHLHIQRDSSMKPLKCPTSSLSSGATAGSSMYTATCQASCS

Row | IC50 [nM] | Compound
1 | 0.1 | CC[C@H](C)[C@H](NC(=O)[C@H](CC(C)C)NC(=O)[C@H](Cc1c[nH]c2ccccc12)NC(=O)[C@H](CCC(N)=O)NC(=O)[C@@H](NC(=O)[C@H](Cc1ccccc1)NC(=O)[C@H](CCC(=O)O)NC(=O)[C@H](CCCNC(=N)N)NC(=O)[C@H](C)NC(=O)[C@H](CCCNC(=N)N)NC(=O)[C@H](CCCNC(=N)N)NC(=O)[C@H](CO)NC(=O)[C@H](CCC(=O)O)NC(=O)[C@H](CC(C)C)NC(=O)[C@H](Cc1ccc(O)cc1)NC(=O)[C@H](CCCCN)NC(=O)[C@H](CO)NC(=O)[C@H](CC(C)C)NC(=O)[C@H](CC(=O)O)NC(=O)[C@H](CO)NC(=O)[C@@H](NC(=O)[C@H](Cc1ccccc1)NC(=O)[C@@H](NC(=O)CNC(=O)[C@H](CCC(N)=O)NC(=O)C(C)(C)NC(=O)[C@@H](N)Cc1c[nH]cn1)[C@@H](C)O)[C@@H](C)O)C(C)C)C(=O)N[C@@H](CCCCNC(=O)CC[C@H](NC(=O)CC[C@H](NC(=O)COCCOCCNC(=O)COCCOCCNC(=O)CC[C@H](NC(=O)CC[C@H](NC(=O)CCCCCCCCCCCCCCCCC(=O)O)C(=O)O)C(=O)O)C(=O)O)C(=O)O)C(=O)N[C@H](C(N)=O)[C@@H](C)O [Chem. 25, N^ε28-[(4S)-4-carboxy-4-[[(4S)-4-carboxy-4-[[2-[2-[2-[[2-[2-[2-[[(4S)-4-carboxy-4-[[(4S)-4-carboxy-4-(17-carboxyheptadecanoylamino)butanoyl]amino]butanoyl]amino]ethoxy]ethoxy]acetyl]amino]ethoxy]ethoxy]acetyl]amino]butanoyl]amino]butanoyl]-[Aib2,Leu10,Glu15,Arg20,Glu21,Ile27,Lys28]-Glucagon amide] (H-H[Aib]QGTFTSDLSKYLESRRAREFVQWLIK([γGlu-γGlu-AEEA-AEEA-γGlu-γGlu-C18 diacid])T-NH2; N-terminus assumed)
2 | 0.4 | CC[C@H](C)[C@H](NC(=O)[C@H](CC(=O)O)NC(=O)[C@H](CO)NC(=O)[C@@H](NC(=O)[C@H](Cc1ccccc1)NC(=O)[C@@H](NC(=O)CNC(=O)[C@H](CCC(N)=O)NC(=O)C1(NC(=O)[C@@H](N)Cc2c[nH]cn2)CCC1)[C@@H](C)O)[C@@H](C)O)C(=O)N[C@@H](CO)C(=O)N[C@@H](CCCCN)C(=O)N[C@@H](Cc1ccc(O)cc1)C(=O)N[C@@H](CC(C)C)C(=O)N[C@@H](CCC(=O)O)C(=O)N[C@@H](CO)C(=O)N[C@@H](CCCNC(=N)N)C(=O)N[C@@H](CCCNC(=N)N)C(=O)N[C@@H](C)C(=O)N[C@@H](CCCNC(=N)N)C(=O)N[C@@H](CCC(=O)O)C(=O)N[C@@H](Cc1ccccc1)C(=O)N[C@H](C(=O)N[C@@H](CCC(N)=O)C(=O)N[C@@H](Cc1c[nH]c2ccccc12)C(=O)N[C@@H](CC(C)C)C(=O)N[C@H](C(=O)N[C@@H](CCCCNC(=O)CC[C@H](NC(=O)CC[C@H](NC(=O)COCCOCCNC(=O)COCCOCCNC(=O)CC[C@H](NC(=O)CC[C@H](NC(=O)CCCCCCCCCCCCCCCCC(=O)O)C(=O)O)C(=O)O)C(=O)O)C(=O)O)C(=O)N[C@H](C(N)=O)[C@@H](C)O)[C@@H](C)CC)C(C)C [Chem. 26, N^ε28-[(4S)-4-carboxy-4-[[(4S)-4-carboxy-4-[[2-[2-[2-[[2-[2-[2-[[(4S)-4-carboxy-4-[[(4S)-4-carboxy-4-(17-carboxyheptadecanoylamino)butanoyl]amino]butanoyl]amino]ethoxy]ethoxy]acetyl]amino]ethoxy]ethoxy]acetyl]amino]butanoyl]amino]butanoyl]-[Acb2,Ile10,Glu15,Arg20,Glu21,Ile27,Lys28]-Glucagon amide] (H-H[Ac4c]QGTFTSDISKYLESRRAREFVQWLIK([γGlu-γGlu-AEEA-AEEA-γGlu-γGlu-C18 diacid])T-NH2; N-terminus assumed)
3 | 0.1 | CC[C@H](C)[C@H](NC(=O)[C@H](CC(C)C)NC(=O)[C@H](Cc1c[nH]c2ccccc12)NC(=O)[C@H](CCC(N)=O)NC(=O)[C@@H](NC(=O)[C@H](Cc1ccccc1)NC(=O)[C@H](CCC(=O)O)NC(=O)[C@H](CCCNC(=N)N)NC(=O)[C@H](C)NC(=O)[C@H](CCCNC(=N)N)NC(=O)[C@H](CCCNC(=N)N)NC(=O)[C@H](C)NC(=O)[C@H](CC(=O)O)NC(=O)[C@H](CC(C)C)NC(=O)[C@H](Cc1ccc(O)cc1)NC(=O)[C@H](CCCCN)NC(=O)[C@H](CO)NC(=O)[C@H](CC(C)C)NC(=O)[C@H](CC(=O)O)NC(=O)[C@H](CO)NC(=O)[C@@H](NC(=O)[C@H](Cc1ccccc1)NC(=O)[C@@H](NC(=O)CNC(=O)[C@H](CCC(N)=O)NC(=O)C(C)(C)NC(=O)[C@@H](N)Cc1c[nH]cn1)[C@@H](C)O)[C@@H](C)O)C(C)C)C(=O)N[C@@H](CC(N)=O)C(=O)N[C@@H](CCCCNC(=O)CC[C@H](NC(=O)CC[C@H](NC(=O)COCCOCCNC(=O)COCCOCCNC(=O)CC[C@H](NC(=O)CCCCCCCCCCCCCCCCC(=O)O)C(=O)O)C(=O)O)C(=O)O)C(N)=O [Chem. 21, N^ε29-[(4S)-4-carboxy-4-[[(4S)-4-carboxy-4-[[2-[2-[2-[[2-[2-[2-[[(4S)-4-carboxy-4-(17-carboxyheptadecanoylamino)butanoyl]amino]ethoxy]ethoxy]acetyl]amino]ethoxy]ethoxy]acetyl]amino]butanoyl]amino]butanoyl]-[Aib2,Leu10,Ala16,Arg20,Glu21,Ile27,Lys29]-Glucagon amide] (H-H[Aib]QGTFTSDLSKYLDARRAREFVQWLINK([γGlu-γGlu-AEEA-AEEA-γGlu-C18 diacid])-NH2; N-terminus assumed)
4 | 0.3 | CC[C@H](C)[C@H](NC(=O)[C@H](CC(C)C)NC(=O)[C@H](Cc1c[nH]c2ccccc12)NC(=O)[C@H](CCC(N)=O)NC(=O)[C@@H](NC(=O)[C@H](Cc1ccccc1)NC(=O)[C@H](CC(=O)O)NC(=O)[C@H](CCC(N)=O)NC(=O)[C@H](C)NC(=O)[C@H](CCCNC(=N)N)NC(=O)[C@H](CCCNC(=N)N)NC(=O)[C@H](C)NC(=O)[C@H](CC(=O)O)NC(=O)[C@H](CC(C)C)NC(=O)[C@H](Cc1ccc(O)cc1)NC(=O)[C@H](CCCCN)NC(=O)[C@H](CO)NC(=O)[C@H](CC(C)C)NC(=O)[C@H](CC(=O)O)NC(=O)[C@H](CO)NC(=O)[C@@H](NC(=O)[C@H](Cc1ccccc1)NC(=O)[C@@H](NC(=O)CNC(=O)[C@H](CCC(N)=O)NC(=O)C(C)(C)NC(=O)[C@@H](N)Cc1c[nH]cn1)[C@@H](C)O)[C@@H](C)O)C(C)C)C(=O)N[C@@H](CCCCNC(=O)COCCOCCNC(=O)COCCOCCNC(=O)CC[C@H](NC(=O)CC[C@H](NC(=O)CC[C@H](NC(=O)CCCCCCCCCCCCCCCCC(=O)O)C(=O)O)C(=O)O)C(=O)O)C(=O)N[C@H](C(N)=O)[C@@H](C)O [Chem. 7, N^ε28-[2-[2-[2-[[2-[2-[2-[[(4S)-4-carboxy-4-[[(4S)-4-carboxy-4-[[(4S)-4-carboxy-4-(17-carboxyheptadecanoylamino)butanoyl]amino]butanoyl]amino]butanoyl]amino]ethoxy]ethoxy]acetyl]amino]ethoxy]ethoxy]acetyl]-[Aib2,Leu10,Ala16,Ile27,Lys28]-Glucagon amide] (H-H[Aib]QGTFTSDLSKYLDARRAQDFVQWLIK([AEEA-AEEA-γGlu-γGlu-γGlu-C18 diacid])T-NH2; N-terminus assumed)
5 | 0.3 | CC[C@H](C)[C@H](NC(=O)[C@H](CC(C)C)NC(=O)[C@H](Cc1c[nH]c2ccccc12)NC(=O)[C@H](C)NC(=O)[C@@H](NC(=O)[C@H](Cc1ccccc1)NC(=O)[C@H](CC(=O)O)NC(=O)[C@H](CCCNC(=N)N)NC(=O)[C@H](C)NC(=O)[C@H](CCCNC(=N)N)NC(=O)[C@H](CCCNC(=N)N)NC(=O)[C@H](C)NC(=O)[C@H](CC(=O)O)NC(=O)[C@H](CC(C)C)NC(=O)[C@H](Cc1ccc(O)cc1)NC(=O)[C@H](CCCCN)NC(=O)[C@H](CO)NC(=O)[C@H](Cc1ccc(O)cc1)NC(=O)[C@H](CC(=O)O)NC(=O)[C@H](CO)NC(=O)[C@@H](NC(=O)[C@H](Cc1ccccc1)NC(=O)[C@@H](NC(=O)CNC(=O)[C@H](CCC(N)=O)NC(=O)C(C)(C)NC(=O)[C@@H](N)Cc1c[nH]cn1)[C@@H](C)O)[C@@H](C)O)C(C)C)C(=O)N[C@@H](CCCCNC(=O)CC[C@H](NC(=O)CC[C@H](NC(=O)COCCOCCNC(=O)COCCOCCNC(=O)CC[C@H](NC(=O)CCCCCCCCCCCCCCCCC(=O)O)C(=O)O)C(=O)O)C(=O)O)C(=O)N[C@H](C(N)=O)[C@@H](C)O [Chem. 32, N^ε28-[(4S)-4-carboxy-4-[[(4S)-4-carboxy-4-[[2-[2-[2-[[2-[2-[2-[[(4S)-4-carboxy-4-(17-carboxyheptadecanoylamino)butanoyl]amino]ethoxy]ethoxy]acetyl]amino]ethoxy]ethoxy]acetyl]amino]butanoyl]amino]butanoyl]-[Aib2,Ala16,Arg20,Ala24,Ile27,Lys28]-Glucagon amide] (H-H[Aib]QGTFTSDYSKYLDARRARDFVAWLIK([γGlu-γGlu-AEEA-AEEA-γGlu-C18 diacid])T-NH2)
